Laboratory results reported in EP0640747B1, “Boiler system pH/phosphate program control method” (NALCO CHEMICAL COMPANY, priority 1993, dated 1995).

Assay: thermal stability of inert fluorescent tracers under boiler conditions
Type: physicochemical
Details: for thermally stable (substantially inert) for time: at 285 °C (545 °F); for thermally stable (substantially inert) at pressures up to: for time periods commensurate with commercial boiler holding times; for thermally stable (substantially inert) at temperatures up to: temperature limit, also printed as 1004 °F
From the text: Among the substantially boiler-system-inert fluorescent compounds are the mono-, di- and trisulfonated naphthalenes, including their water-soluble salts, particularly the various naphthalene mono- and disulfonic acid isomers, which are a preferred inert tracer(s) for use in the present invention. The naphthalene mono- and disulfonic acid isomers are water-soluble, generally available commercially and easily detectable and quantifiable by known fluorescence analysis techniques. Preferred naphthalene mono- and disulfonic acid isomers are the water-soluble salts of naphthalene sulfonic acid ("NSA"), such as 2-NSA, and naphthalene disulfonic acid ("NDSA" or "NDA"), for instance 1,5-NDSA. Many of these inert tracer(s) (mono-, di- and trisulfonated naphthalenes and mixtures thereof) are extremely compatible with the environments of most boiler systems.

Structure (SMILES) | thermally stable (substantially inert) for time | thermally stable (substantially inert) at pressures up to | thermally stable (substantially inert) at temperatures up to
O=S(=O)(O)c1cccc2c(S(=O)(=O)O)cccc12 [1,5-NDSA, 1,5-naphthalene disulfonic acid] | at least 24 hours | about 1,500 psig | at least 540 °C
O=S(=O)(O)c1ccc2ccccc2c1 [2-NSA, 2-naphthalene sulfonic acid] | at least 24 hours | about 1,500 psig | at least 540 °C
